The values that follow come from EP0424901A1, “Dihydropyridine derivatives and pharmaceutical compositions” (THE GREEN CROSS CORPORATION, priority 1989, dated 1991).

SMILES strings stand for the structures. Where a name gives a salt, the structure may show the parent alone. Read-outs that look alike come from different tables or passages of the source.

The test system of the experiment is male Wistar rats. Put plainly: Blood pressure in anesthetized rats after intravenous bolus administration. It counts as in vivo. The note with it: tail vein bolus; for DBP % change: diastolic blood pressure relative to that before administration (=100%); for DBP % change / SBP % change: mean ± SE, n=4; for SBP % change: systolic blood pressure relative to that before administration (=100%); for ED30: Rattus norvegicus, iv. Here is the method:
The subject rats anesthetized with pentobarbital-Na (50 mg/kg, i.p.) were fixed at the dorsal position, and the blood pressure was successively recorded on a polygraph via polyethylene catheter inserted in left common carotid artery and piezoelectric transducer. The drug was bolus- administered at a dose of 1 ml/kg through a wing needle dwelled in tail vein.
As the subject animal, male Wistar rats (about 300 g body weight, 4 rats per group) were used.
The test drug was prepared by dissolving 10 mg thereof in 0.3 ml of ethanol and 0.1 ml of Tween 80 and diluting with saline.

[1] abbreviates: estimated dose necessary for 30% reduction of diastolic blood pressure, read-out: DBP ED30.
The mark [2] stands for this setting: estimated dose necessary for 30% reduction of systolic blood pressure, read-out: SBP ED30.

Turning to `COC(=O)C1=C(C)NC(C)=C(C(=O)OCCc2ccc(N3CCN(C(c4ccccc4)c4ccccc4)CC3)cc2)[C@@H]1c1cccc([N+](=O)[O-])c1` [(R)-(-)-compound 3, (R)-(-)-4-(4-benzhydrylpiperadino)phenetyl methyl 1,4-dihydro-2,6-dimethyl-4-(3-nitrophenyl)-3,5-pyridinedicarboxylate hydrochloride], the DBP % change is, setting by setting: (dose 100 µg/kg) 94±1%; (dose 1000 µg/kg) 91±2%. Moreover, the SBP % change by setting is: (dose 100 µg/kg) 93±2%; (dose 1000 µg/kg) 93±3%.

For the compound `COC(=O)C1=C(C)NC(C)=C(C(=O)OCCc2ccc(N3CCN(C(c4ccccc4)c4ccccc4)CC3)cc2)C1c1cccc([N+](=O)[O-])c1` (racemic) [compound 3, reference compound], the ED30 reads like this: under setting [1], 0.046 mg/kg; under setting [2], 0.63 mg/kg. Also, the DBP % change stood at 75±5% (dose 30 µg/kg), 61±2% (dose 100 µg/kg) and 53±3% (dose 300 µg/kg). For the same compound, the SBP % change runs as follows: (dose 30 µg/kg) 79±1%; (dose 100 µg/kg) 76±4%; (dose 300 µg/kg) 72±3%.

On to `COC(=O)C1=C(C)NC(C)=C(C(=O)OCCc2ccc(N3CCN(C(c4ccccc4)c4ccccc4)CC3)cc2)[C@H]1c1cccc([N+](=O)[O-])c1` [(S)-(+)-compound 3, (S)-(+)-4-(4-benzhydrylpiperadino)phenetyl methyl 1,4-dihydro-2,6-dimethyl-4-(3-nitrophenyl)-3,5-pyridinedicarboxylate hydrochloride], for which the ED30 is, setting by setting: under setting [1], 0.037 mg/kg; under setting [2], 0.16 mg/kg. For the same compound, the DBP % change reads like this: (dose 10 µg/kg) 89±1%; (dose 30 µg/kg) 74±2%; (dose 100 µg/kg) 55±4%. The SBP % change reads like this: (dose 10 µg/kg) 86±3%; (dose 30 µg/kg) 86±3%; (dose 100 µg/kg) 71±5%.
